Laboratory results as given in patent publication US20230255961A1, “Rotomeric Isomers of 4-Alkyl-5-Heteroaryl-3H-1,2-Dithiole-3-Thiones” (ST IP Holding AG, priority 2020, published 2023).

Columns and labels:
rat cortical neurons = assay: Caspase 3/7 activation assay, OGD-induced neurotoxicity in rat cortical neurons; format: cell-based; conditions: for OGD induced caspase 3/7 activation / neuroprotection: 100 μg/ml, 1 h incubation eighteen hours prior to OGD, FIG. 7
Experimental: The effect of the rotomer complexes of Examples 1, 2, 3 and 9 on neurotoxicity induced by oxygen glucose deprivation (OGD) was tested in a caspase 3/7 activation assay. The assay was applied to freshly isolated rat cortical neurons cultured in 96-well-plates and exposed to the compounds at 100 μg/ml.
In vitro ischemic injury was induced in rat primary neuronal culture by oxygen-glucose deprivation for 2 hours. Neurons were incubated with the compounds for 1 hour eighteen hours prior to the OGD induction. Dizocilpine (MK801) 10 μM was used as positive neuroprotection control. After treatments, incubated with three optically compatible fluorescent dyes, and subsequently analyzed with BD Pathway 855 (Becton Dickinson). Cell parameters associated with caspase 3/7 activation—indicative of pre-lethal cytotoxic effects—were measured by high content screening at single cell level.
Primary cultures of cortical neurons were isolated from cerebral cortices of Sprague-Dawley rat fetuses at embryonic day 18. Brains were removed and after removing the meninges, the tissues were dissected under a binocular microscope. Neurons were enzymatically dispersed by trypsin 0.2% and DNAse […] digestion for 10 min at 37° C. plated in poly-L-lysine wells and incubated with B27 supplemented neurobasal medium.
Cortical neurons of 18 days old embryonic rats were plated in poly-1-lysine coated 96-well plates (30,000 cells per well). Cells were maintained in neurobasal medium supplemented with B-27 component: for 5 days at 37° C. in a humidified 5% CO2 atmosphere. At day 5, cells were subjected to oxygen glucose deprivation (OGD) for 2 hours at 37° C. The cultures were placed in an […] chamber (Billops-Rothenberg) and incubated in neurobasal medium lacking glucose and B27 factor and aerated with an anaerobic gas mixture (94.7% N2. 5% CO2, 0.3% O2) to remove residual oxygen. Control cultures were kept in the original neurobasal medium but were submitted to the anaerobic conditions. At the end of the OGD conditions, the cells were removed from the anaerobic chamber, the OGD medium was replaced with neurobasal medium containing glucose, and the cells were incubated for an additional 24 h. The test compounds were added to the neurons eighteen hours prior to the OGD induction and maintained for 1 h. Replicate cultures were treated as described above with dizocilpine (MK801) as positive control of neuroprotection. The neuroprotective potential of the four rotomer complexes was determined by a caspase 3/7 activation assay.
(§1) Caspase 3/7 activation was determined using The CellEvent® Caspase-3/7 Green Detection Reagent which is intrinsically a non-fluorescent peptide that inhibits the ability of the dye to bind to DNA. However, after caspase-3/7 activation in apoptotic cells, the peptide is cleaved allowing the dye to bind to DNA producing a bright, fluorogenic response. Cell were stained with 5 μM reagent, washed 3 times and measured at 488 nm/530 nm Ex/Em. This dye permits the direct quantification of apoptotic cells.

[1] = test system: mouse neonatal primary cardiomyocyte; conditions: 100 μg/ml, 4 hours prior to OGD, during 18 h OGD and 24 h recovery; FIG. 9
Experimental: as §1

HGEPp cells = assay: ROS production in H2O2-induced oxidatively stressed HGEPp cells; format: cell-based, human; conditions: HGEPp cells pretreated 24 hrs at 100 μg/mL prior to 0.3 mM H2O2 for 4 h; positive control 139%
Experimental: That same assay was carried out on the rotomer compositions prepared in Examples 1-11 above to determine their effect on protecting primary human gingival epithelial cells (HGEPp) cells from oxidative damage induced by hydrogen peroxide (H2O2).

SOD1 = assay: Human oxidative stress RT2 Profiler PCR array in HGEPp cells: SOD1; format: cell-based; conditions: HGEPp cells pretreated 24 h at 100 μg/ml; ΔΔCt
Experimental: (§2) RT-PCR was performed on an iCycler.

NQO1 = assay: Human oxidative stress RT2 Profiler PCR array in HGEPp cells: NQO1; format: cell-based; conditions: HGEPp cells pretreated 24 h at 100 μg/ml; ΔΔCt
Experimental: as §2

GPX4 = assay: Human oxidative stress RT2 Profiler PCR array in HGEPp cells: GPX4; conditions: HGEPp cells pretreated 24 h at 100 μg/ml; ΔΔCt
Experimental: (§3) Pooled primary HGEPp cells were propagated in CnT-Prime epithelial culture medium provided by CellnTec on 100 mm petri dishes coated with 30 mg/ml Type I rat tail collagen (BD Biosciences) diluted in Duibecco's phosphate-buffered saline (DPBS). HGEPp cells were grown in 12×60 mm Nunc™ Cell Culture dishes at a 2.5×10^4 cells/cm2 density concentration.
(§4) All dosing solutions contained 0.3% of DMSO which is well below the maximum tolerated DMSO percent of 0.8% for HGEPp cells.
(§5) The RN-easy UCP Micro Kit was used to purify mRNA from the HGEPp cells.
(§6) The assay was reliably used to analyze expression levels of 84 genes related to oxidative stress in HGEPp cells pre-treated with ST-617-APT, ST-617-DPT and the rotomeric complexes at 100 μg/ml for 24 h. The cDNA from above was mixed with the RT2 SYBR Green fluor Mastermix and aliquoted into the wells of the RT2 Profiler PCR Array. RT-PCR was performed on an iCycler. Gene expression was compared using et values and the results were calculated using ΔΔ Ct method with normalization to the average expression levels of the five common genes (ACTB, B2M, GAPDH, HPRT, and RPL13A).

UCP2 = assay: Human oxidative stress RT2 Profiler PCR array in HGEPp cells: UCP2; format: cell-based; conditions: HGEPp cells pretreated 24 h at 100 μg/ml; ΔΔCt
Experimental: as §2

MPO = assay: Human oxidative stress RT2 Profiler PCR array in HGEPp cells: MPO; conditions: HGEPp cells pretreated 24 h at 100 μg/ml; ΔΔCt
Experimental: as §3, §4, §5, §6

PRDX2 = assay: Human oxidative stress RT2 Profiler PCR array in HGEPp cells: PRDX2; conditions: HGEPp cells pretreated 24 h at 100 μg/ml; ΔΔCt
Experimental: as §3, §4, §5, §6

GCLM = assay: Human oxidative stress RT2 Profiler PCR array in HGEPp cells: GCLM; format: cell-based; conditions: HGEPp cells pretreated 24 h at 100 μg/ml; ΔΔCt
Experimental: as §2

GTF2i = assay: Human oxidative stress RT2 Profiler PCR array in HGEPp cells: GTF2i; format: cell-based; conditions: HGEPp cells pretreated 24 h at 100 μg/ml; ΔΔCt
Experimental: as §2

GPX1 = assay: Human oxidative stress RT2 Profiler PCR array in HGEPp cells: GPX1; format: cell-based; conditions: HGEPp cells pretreated 24 h at 100 μg/ml; ΔΔCt
Experimental: as §2

PTGS1 = assay: Human oxidative stress RT2 Profiler PCR array in HGEPp cells: PTGS1; format: cell-based; conditions: HGEPp cells pretreated 24 h at 100 μg/ml; ΔΔCt
Experimental: as §2

GSTP1 = assay: Human oxidative stress RT2 Profiler PCR array in HGEPp cells: GSTP1; format: cell-based; conditions: HGEPp cells pretreated 24 h at 100 μg/ml; ΔΔCt
Experimental: as §2

ALOX12 = assay: Human oxidative stress RT2 Profiler PCR array in HGEPp cells: ALOX12; format: cell-based; conditions: HGEPp cells pretreated 24 h at 100 μg/ml; ΔΔCt
Experimental: as §2

GCLC = assay: Human oxidative stress RT2 Profiler PCR array in HGEPp cells: GCLC; format: cell-based; conditions: HGEPp cells pretreated 24 h at 100 μg/ml; ΔΔCt
Experimental: as §2

[2] = test system: oxidative stress-related genes in HGEPp cells; assay: Human oxidative stress RT2 Profiler PCR array in HGEPp cells: statements over several genes; conditions: for SOD1, NQ01, GCLC, GSTP1 and GCLM; 100 μg/ml, 24 h
Experimental: as §3, §4, §5, §6

Cc1c(-c2cnccn2)ssc1=S.Cl [Example 1, hydrochloride complex of oltipraz]
OGD induced caspase 3/7 activation (rat cortical neurons): significantly reduced
neuroprotection (rat cortical neurons): high degree of neuroprotection
cardioprotection [1]: significant degree of cardioprotection
ROS level relative to Normal (100%, optical density baseline) (HGEPp cells): 128%

Cc1c(-c2cncc[n+]2OC2=CC(=O)OC2=O)ssc1=S [Example 2, hydroxymaleate anhydride complex of oltipraz]
OGD induced caspase 3/7 activation (rat cortical neurons): significantly reduced
neuroprotection (rat cortical neurons): high degree of neuroprotection
cardioprotection [1]: significant degree of cardioprotection
ROS level relative to Normal (100%, optical density baseline) (HGEPp cells): 116%

CC(=O)[n+]1ccncc1-c1ssc(=S)c1C.[Cl-] [Example 3, acetyl chloride complex of oltipraz]
SOD1 up regulation relative fold change (SOD1): 4.24 fold
NQO1 up regulation relative fold change (NQO1): 3.36 fold
OGD induced caspase 3/7 activation (rat cortical neurons): significantly reduced
neuroprotection (rat cortical neurons): high degree of neuroprotection
GPX4 up regulation relative fold change (GPX4): 2.83 fold
UCP2 down regulation relative fold change (UCP2): 0.26 fold
MPO up regulation relative fold change (MPO): 3.10 fold
PRDX2 down regulation relative fold change (PRDX2): 0.33 fold
GCLM up regulation relative fold change (GCLM): 2.38 fold
GTF2i down regulation relative fold change (GTF2i): 0.32 fold
GPX1 up regulation relative fold change (GPX1): 4.76 fold
PTGS1 down regulation relative fold change (PTGS1): 0.29 fold
GSTP1 up regulation relative fold change (GSTP1): 2.87 fold
ALOX12 up regulation relative fold change (ALOX12): 6.33 fold
GCLC up regulation relative fold change (GCLC): 3.27 fold
cardioprotection [1]: significant degree of cardioprotection
ROS level relative to Normal (100%, optical density baseline) (HGEPp cells): 129%

CCCC[n+]1ccncc1-c1ssc(=S)c1C.[Cl-] [Example 4, n-butyl chloride complex of oltipraz]
SOD1 up regulation relative fold change (SOD1): 4.15 fold
NQO1 up regulation relative fold change (NQO1): 3.34 fold
GPX4 up regulation relative fold change (GPX4): 2.96 fold
UCP2 down regulation relative fold change (UCP2): 0.25 fold
MPO up regulation relative fold change (MPO): 3.20 fold
PRDX2 down regulation relative fold change (PRDX2): 0.32 fold
GCLM up regulation relative fold change (GCLM): 2.38 fold
GTF2i down regulation relative fold change (GTF2i): 0.35 fold
GPX1 up regulation relative fold change (GPX1): 4.80 fold
PTGS1 down regulation relative fold change (PTGS1): 0.27 fold
GSTP1 up regulation relative fold change (GSTP1): 2.88 fold
ALOX12 up regulation relative fold change (ALOX12): 5.82 fold
GCLC up regulation relative fold change (GCLC): 3.35 fold
ROS level relative to Normal (100%, optical density baseline) (HGEPp cells): 128%

Cc1c(-c2cncc[n+]2C)ssc1=S.[I-] [Example 5, methyl iodide complex of oltipraz]
SOD1 up regulation relative fold change (SOD1): 3.89 fold
NQO1 up regulation relative fold change (NQO1): 3.15 fold
GPX4 up regulation relative fold change (GPX4): 2.85 fold
UCP2 down regulation relative fold change (UCP2): 0.29 fold
MPO up regulation relative fold change (MPO): 3.18 fold
PRDX2 down regulation relative fold change (PRDX2): 0.32 fold
GCLM up regulation relative fold change (GCLM): 2.27 fold
GTF2i down regulation relative fold change (GTF2i): 0.33 fold
GPX1 up regulation relative fold change (GPX1): 4.98 fold
PTGS1 down regulation relative fold change (PTGS1): 0.28 fold
GSTP1 up regulation relative fold change (GSTP1): 2.90 fold
ALOX12 up regulation relative fold change (ALOX12): 6.04 fold
GCLC up regulation relative fold change (GCLC): 3.38 fold
ROS level relative to Normal (100%, optical density baseline) (HGEPp cells): 134%

Cc1c(-c2cncc[n+]2C(=O)c2ccccc2)ssc1=S.[Cl-] [Example 6, benzoyl chloride complex of oltipraz]
SOD1 up regulation relative fold change (SOD1): 3.92 fold
NQO1 up regulation relative fold change (NQO1): 3.17 fold
GPX4 up regulation relative fold change (GPX4): 2.91 fold
UCP2 down regulation relative fold change (UCP2): 0.28 fold
MPO up regulation relative fold change (MPO): 3.05 fold
PRDX2 down regulation relative fold change (PRDX2): 0.31 fold
GCLM up regulation relative fold change (GCLM): 2.25 fold
GTF2i down regulation relative fold change (GTF2i): 0.36 fold
GPX1 up regulation relative fold change (GPX1): 4.43 fold
PTGS1 down regulation relative fold change (PTGS1): 0.28 fold
GSTP1 up regulation relative fold change (GSTP1): 2.74 fold
ALOX12 up regulation relative fold change (ALOX12): 5.93 fold
GCLC up regulation relative fold change (GCLC): 3.31 fold
ROS level relative to Normal (100%, optical density baseline) (HGEPp cells): 131%

Cc1c(-c2cnccn2)ssc1=S.O=S(=O)(O)CCO [Example 10, isethionic acid complex of oltipraz]
up-regulation compared to ST-617-DPI and ST-617-DPI [2]: significantly higher up-regulation
ROS level relative to Normal (100%, optical density baseline) (HGEPp cells): 113%

C[C@]12N[C@H](Cc3ccccc31)c1ccccc12 [MK801, Dizocilpine, reference compound]
prevention of OGD-induced apoptosis based on caspase activation (rat cortical neurons; 10 μM, OGD 2 hours, measured 24 h after exposure): 28%

thiobenzoic acid complex of oltipraz [Example 11]
ROS level relative to Normal (100%, optical density baseline) (HGEPp cells): 116%
